According to patent publication US8614181B2, “Stabilized pharmaceutical peptide compositions” (Novo Nordisk A/S, priority 2003, dated 2013):

Assay: Thioflavin T-test (ThT) of physical stability (fibril formation) of pharmaceutical formulations after storage at 37° C.
Assay type: physicochemical
Conditions: for Fluorescence units after storage at 37° C., T = 0 week / Fluorescence units after storage at 37° C., T = 1 month / Fluorescence units after storage at 37° C., T = 1 week: pH of pharmaceutical formulation 7.4
Description: Before freeze drying the solution or suspension of the peptide it has been adjusted to the aimed pH. After freeze drying pharmaceutical formulations were prepared according to General procedure 1 and 2.
Preservative, isotonic agent and buffer were dissolved in water and pH adjusted to 7.4. Hereafter the freeze dried peptide was dissolved while stirring slowly. The pH was adjusted to 7.4 using Sodium Hydroxide and/or Hydrochloric Acid. Finally, the formulation was filtered through a 0.22 μm filter.
(§1) Preservative, isotonic agent and buffer were dissolved in water and pH adjusted to 7.4. The peptide was dissolved in water while stirring slowly. The two solutions were mixed and pH adjusted to 7.4 using Sodium Hydroxide and/or Hydrochloric acid. Finally, the formulation was filtered through a 0.22 μm filter.
as §1, with “7.4 or lower. Compound 1” for “7.4. The peptide”, “slowly and pH is adjusted to 11.5 by the addition of Sodium Hydroxide. After approx. 5 min the” for “slowly. The”
Physical stability of the formulations is evaluated by means of the Thioflavin T-test. The physical stability of the different formulations is characterized by their tendency to form fibrils. A method to determine the presence of fibrils is the Thioflavin T-test. The histological thiazole dye Thioflavin T (ThT) is used as an indicator of amyloid fibril formation. The method is based on the fluorescent characteristics of ThT. […] The physical stability of the formulations is evaluated by the ThT-test after storage of the formulation is top filled glass cartridges for various time periods.

[1] = pH of Compound 1 before freeze drying 8.0, 3 mg/ml
[2] = pH of Compound 1 before freeze drying 9.5, 3 mg/ml
[3] = pH of Compound 1 before freeze drying 9.5, 6.25 mg/ml
[4] = pH of Compound 1 before freeze drying 11.5, 3 mg/ml
[5] = pH of Compound 1 before freeze drying 11.5, 6.25 mg/ml
[6] = pH of solution containing the drug substance 8.0, 6.25 mg/ml
[7] = pH of solution containing the drug substance 11.5, 6.25 mg/ml

Question: With “Arg^34, Lys^26 (N^ε-(γ-Glu(N^α-hexadecanoyl)))GLP-1(7-37) [Compound 1]” as the substance, how does the “Physical stability (change in ThT) after 1 week and 1 months storage at 37° C.” value (Compound 1 adjusted to pH 8.0 before freeze drying) read?
Answer: The value was “an increase in ThT is seen”.

Question: What about the “Physical stability (change in ThT) after 1 week and 1 months storage at 37° C.” value (Compound 1 adjusted to pH 9.5 before freeze drying) of the same substance?
Answer: The value was “no increase in ThT is seen”.

Question: What about the “Physical stability (change in ThT) after 1 week and 1 months storage at 37° C.” value (Compound 1 adjusted to pH 11.5 before freeze drying) of the same substance?
Answer: The value was “no increase in ThT is seen”.

Question: And the “Fluorescence units after storage at 37° C., T = 0 week” value (“Fluorescence units … T = 0 week” for short) [1]?
Answer: Its value is 6 fluorescence units.

Question: What about the “Fluorescence units after storage at 37° C., T = 1 month” value (from here on “Fluorescence units … T = 1 month”) [1] of the same substance?
Answer: Its value is 28 fluorescence units.

Question: And the “Fluorescence units … T = 1 month” value (pH of Compound 1 before freeze drying 8.0, 6.25 mg/ml)?
Answer: Its value is 37 fluorescence units.

Question: What about the “Fluorescence units … T = 0 week” value [2] of the same substance?
Answer: Its value is 6 fluorescence units.

Question: What about the “Fluorescence units … T = 1 month” value [2] of the same substance?
Answer: The value was 7 fluorescence units.

Question: What about the “Fluorescence units … T = 1 month” value [3] of the same substance?
Answer: Its value is 13 fluorescence units.

Question: What about the “Fluorescence units after storage at 37° C., T = 1 week” value (shortened to “Fluorescence units … T = 1 week”) [3] of the same substance?
Answer: Its value is 13 fluorescence units.

Question: And the “Fluorescence units … T = 0 week” value [4]?
Answer: Its value is 6 fluorescence units.

Question: And the “Fluorescence units … T = 1 month” value [4]?
Answer: Its value is 7 fluorescence units.

Question: And the “Fluorescence units … T = 0 week” value [5]?
Answer: Its value is 14 fluorescence units.

Question: And the “Fluorescence units … T = 1 month” value [5]?
Answer: The value was 14 fluorescence units.

Question: What about the “Fluorescence units … T = 1 week” value [5] of the same substance?
Answer: Its value is 13 fluorescence units.

Question: What about the “Fluorescence units … T = 0 week” value [6] of the same substance?
Answer: The value was 14 fluorescence units.

Question: And the “Fluorescence units … T = 1 month” value [6]?
Answer: The value was 41 fluorescence units.

Question: And the “Fluorescence units … T = 1 week” value [6]?
Answer: Its value is 20 fluorescence units.

Question: What about the “Fluorescence units … T = 0 week” value [7] of the same substance?
Answer: The value was 13 fluorescence units.

Question: And the “Fluorescence units … T = 1 month” value [7]?
Answer: Its value is 13 fluorescence units.

Question: What about the “Fluorescence units … T = 1 week” value [7] of the same substance?
Answer: The value was 12 fluorescence units.

Question: What about the “Physical stability (change in ThT) after 1 month at 37° C.” value (pH raised above neutral pH (>8) in the solution containing the drug substance) of the same substance?
Answer: Its value is “no increase in ThT is seen”.
